The values below come from US4732970A, “Antitumor amino acid and peptide derivatives of 1,4-bis(aminoalkyl and hydroxy-aminoalkyl)amino)-5,8-dihydroxyanthraquinones” (priority 1986, dated 1988).

This assay has as its system lymphocytic leukemia P388. The experiment in a line: Lymphocytic Leukemia P388 Test. The assay is classed as in vivo, BDF1 mice. To be noted: for Median Survival: BDF1 mice; for response vs control in vivo at 0.75 mg/kg / response vs control in vivo at 1.5 mg/kg / response vs control in vivo at 3 mg/kg: Mus musculus, P388, ip. The essentials: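 BDF1 mice (5–6 per group) were inoculated i.p. with 10^6 P388 cells, then dosed i.p. on days 1, 5 and 9 at various doses. Survival was followed for 60 days, and median survival time and the treated/control (T/C) survival ratio were calculated.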

[1] abbreviates: dose 0.75 mg/kg intraperitoneally on days 1, 5 and 9.
Setting [2] is: dose 0.75 mg/kg intraperitoneally on days 1, 5 and 9, ratio of survival time treated/control.
The mark [3] stands for this setting: dose 1.5 mg/kg intraperitoneally on days 1, 5 and 9.
Setting [4] is: dose 1.5 mg/kg intraperitoneally on days 1, 5 and 9, ratio of survival time treated/control.
Setting [5] is: dose 3 mg/kg intraperitoneally on days 1, 5 and 9.
[6] abbreviates: dose 3 mg/kg intraperitoneally on days 1, 5 and 9, ratio of survival time treated/control.

Like-named read-outs stand apart in the source and are kept apart here.

Regarding `CC(C)(C)OC(=O)NCC(=O)NCC(=O)NCC(=O)NCCNc1ccc(NCCNC(=O)CNC(=O)CNC(=O)CNC(=O)OC(C)(C)C)c2c1C(=O)c1c(O)ccc(O)c1C2=O` [Example 59, N,N'-[(9,10-Dihydro-5,8-dihydroxy-9,10-dioxo-1,4-anthracenediyl)bis(imino-2,1-ethanediyl)]bis[N-[(1,1-dimethylethoxy)carbonyl]glycylglycyl]glycinamide], the “Median Survival” value under setting [1] worked out at 15.0 days, the “Median Survival” value under setting [3] was 15.5 days and the “Median Survival” value under setting [5] amounted to 18.0 days. Besides, the “T/C × 100 (%)” value was 136% under setting [2], 141% under setting [4] and 164% under setting [6].

As to `CC[C@H](C)[C@H](N)C(=O)NCCNc1ccc(NCCNC(=O)[C@@H](N)[C@@H](C)CC)c2c1C(=O)c1c(O)ccc(O)c1C2=O.Cl.Cl` (relative stereo) [Example 21, [S-(R*,R*,R*,R*)]-N,N'-[(9,10-Dihydro-5,8-dihydroxy-9,10-dioxo-1,4-anthracenediyl)bis(imino-2,1-ethanediyl)]bis-[2-amino-3-methylpentanamide], dihydrochloride], the “Median Survival” value runs as follows: under setting [1], 18.5 days; under setting [3], 18.0 days; under setting [5], 22.5 days. Also, the “T/C × 100 (%)” value is listed as 185% under setting [2], 180% under setting [4] and 225% under setting [6].

For the compound `CC(C)C[C@H](NC(=O)CNC(=O)CNC(=O)OCc1ccccc1)C(=O)NCCNc1ccc(NCCNC(=O)[C@H](CC(C)C)NC(=O)CNC(=O)CNC(=O)OCc2ccccc2)c2c1C(=O)c1c(O)ccc(O)c1C2=O` [Example 69, N,N'-[(9,10-Dihydro-5,8-dihydroxy-9,10-dioxo-1,4-anthracenediyl)bis(imino-2,1-ethanediyl)]bis[N-[(phenylmethoxy)carbonyl]glycylglycyl-L-leucinamide]], under “read-out: T/C × 100 (%)”, the response vs control in vivo at 0.75 mg/kg was 170%, the response vs control in vivo at 1.5 mg/kg came to 170% and the response vs control in vivo at 3 mg/kg worked out at 180%. In addition, the “Median Survival” value under setting [1] was 17.0 days. Besides, the “Median Survival” value under setting [3] is 17.0 days. In addition, the “Median Survival” value under setting [5] was 18.0 days.

On to `CC(C)C[C@H](NC(=O)[C@H](C)NC(=O)[C@@H](N)CC(=O)O)C(=O)NCCNc1ccc(NCCNC(=O)[C@H](CC(C)C)NC(=O)[C@H](C)NC(=O)[C@@H](N)CC(=O)O)c2c1C(=O)c1c(O)ccc(O)c1C2=O.O=C(O)C(F)(F)F.O=C(O)C(F)(F)F` [Example 84, N,N'-[(9,10-Dihydro-5,8-dihydroxy-9,10-dioxo-1,4-anthracenediyl)bis(imino-2,1-ethanediyl)]bis[L-α-aspartyl-L-alanyl-L-leucinamide]bis(trifluoroacetate)], for which the “Median Survival” value stood at 24.0 days under setting [1], 21.5 days under setting [3] and 28.0 days under setting [5]. The “T/C × 100 (%)” value is reported as 240% under setting [2], 215% under setting [4] and 280% under setting [6].

For `O=C(CNC(=O)CNC(=O)OCc1ccccc1)NCCNc1ccc(NCCNC(=O)CNC(=O)CNC(=O)OCc2ccccc2)c2c1C(=O)c1c(O)ccc(O)c1C2=O` [Example 57, N,N'-[(9,10-Dihydro-5,8-dihydroxy-9,10-dioxo-1,4-anthracenediyl)bis(imino-2,1-ethanediyl)]bis[N-[(phenylmethoxy)carbonyl]glycyl]glycinamide], the “Median Survival” value reads like this: under setting [1], 12.0 days; under setting [3], 14.0 days; under setting [5], 15.0 days. Also, the “T/C × 100 (%)” value reads like this: under setting [2], 109%; under setting [4], 127%; under setting [6], 136%.

On to `Br.Br.NCC(=O)N[C@@H](Cc1ccccc1)C(=O)NCCNc1ccc(NCCNC(=O)[C@H](Cc2ccccc2)NC(=O)CN)c2c1C(=O)c1c(O)ccc(O)c1C2=O` (relative stereo) [Example 54, [S-(R*,R*)]-N,N'-[(9,10-Dihydro-5,8-dihydroxy-9,10-dioxo-1,4-anthracenediyl)bis(imino-2,1-ethanediyl)]bis[glycyl-L-phenylalaninamide]dihydrobromide], for which the “Median Survival” value came to 18.5 days under setting [1], 19.0 days under setting [3] and 19.0 days under setting [5]. Besides, the “T/C × 100 (%)” value under setting [2] was 185%, the “T/C × 100 (%)” value under setting [4] came out at 195% and the “T/C × 100 (%)” value under setting [6] is reported as 190%.

On to `CC(C)CC(N)C(=O)N(CCO)CCNc1ccc(NCCN(CCO)C(=O)C(N)CC(C)C)c2c1C(=O)c1c(O)ccc(O)c1C2=O.Cl.Cl` (stereo not drawn) [Example 28, N,N'-[(9,10-Dihydro-5,8-dihydroxy-9,10-dioxo-1,4-anthracenediyl)bis(imino-2,1-ethanediyl)]bis[2-amino-N-(2-hydroxyethyl)-4-methylpentanamide], dihydrochloride], for which the response vs control in vivo at 0.75 mg/kg (dose 0.75 mg/kg intraperitoneally on days 1, 5 and 9, ratio of survival time treated/control, read-out: T/C × 100 (%)) amounted to 109%. The response vs control in vivo at 1.5 mg/kg (dose 1.5 mg/kg intraperitoneally on days 1, 5 and 9, ratio of survival time treated/control, read-out: T/C × 100 (%)) worked out at 127%. In addition, the response vs control in vivo at 3 mg/kg (dose 3 mg/kg intraperitoneally on days 1, 5 and 9, ratio of survival time treated/control, read-out: T/C × 100 (%)) came out at 155%. The “Median Survival” value came out at 12.0 days under setting [1], 14.0 days under setting [3] and 17.0 days under setting [5].

Take `C[C@H](NC(=O)[C@H](C)NC(=O)[C@@H](N)CC(=O)O)C(=O)NCCNc1ccc(NCCNC(=O)[C@H](C)NC(=O)[C@H](C)NC(=O)[C@@H](N)CC(=O)O)c2c1C(=O)c1c(O)ccc(O)c1C2=O.O=C(O)C(F)(F)F.O=C(O)C(F)(F)F` [Example 83]: the “Median Survival” value under setting [1] was 22.0 days, the “Median Survival” value under setting [3] was determined as 22.5 days and the “Median Survival” value under setting [5] is 38.5 days. Besides, the “T/C × 100 (%)” value reads like this: under setting [2], 220%; under setting [4], 225%; under setting [6], 385%.

Consider `Br.Br.CC(C)C[C@H](N)C(=O)N[C@@H](C)C(=O)NCCNc1ccc(NCCNC(=O)[C@H](C)NC(=O)[C@@H](N)CC(C)C)c2c1C(=O)c1c(O)ccc(O)c1C2=O` [Example 50, N,N'-[(9,10-Dihydro-5,8-dihydroxy-9,10-dioxo-1,4-anthracenediyl)bis(imino-2,1-ethanediyl)]bis[L-leucyl-L-alaninamide], dihydrobromide], for which the response vs control in vivo at 0.75 mg/kg (read-out: T/C × 100 (%), dose 0.75 mg/kg intraperitoneally on days 1, 5 and 9, ratio of survival time treated/control) came to 170%. The response vs control in vivo at 1.5 mg/kg (read-out: T/C × 100 (%), dose 1.5 mg/kg intraperitoneally on days 1, 5 and 9, ratio of survival time treated/control) came to 200%. Moreover, the response vs control in vivo at 3 mg/kg (read-out: T/C × 100 (%), dose 3 mg/kg intraperitoneally on days 1, 5 and 9, ratio of survival time treated/control) is 200%. The “Median Survival” value runs as follows: under setting [1], 17.0 days; under setting [3], 20.0 days; under setting [5], 20.0 days.

As for `Br.Br.Br.Br.C[C@H](NC(=O)[C@H](CO)NC(=O)[C@@H](N)CCCNC(=N)N)C(=O)NCCNc1ccc(NCCNC(=O)[C@H](C)NC(=O)[C@H](CO)NC(=O)[C@@H](N)CCCNC(=N)N)c2c1C(=O)c1c(O)ccc(O)c1C2=O` [Example 94, N,N'-[(9,10-Dihydro-5,8-dihydroxy-9,10-dioxo-1,4-anthracenediyl)bis(imino-2,1-ethanediyl)]bis[L-arginyl-L-seryl-L-alaninamide], tetrahydrobromide], the “Median Survival” value came to 21.5 days under setting [1], 21.0 days under setting [3] and 34.5 days under setting [5]. The “T/C × 100 (%)” value under setting [2] came to 195%, the “T/C × 100 (%)” value under setting [4] is reported as 191% and the “T/C × 100 (%)” value under setting [6] was found to be 314%.

As to “N,N'-[(9,10-Dihydro-5,8-dihydroxy-9,10-dioxo-1,4-anthracenediyl)bis(imino-2,1-ethanediyl)]bis[L-alanyl-L-alanine]bis(trifluoroacetate) [Example 72]”, the “Median Survival” value by setting is: under setting [1], 20.0 days; under setting [3], 20.0 days; under setting [5], 23.0 days. The “T/C × 100 (%)” value under setting [2] worked out at 190%, the “T/C × 100 (%)” value under setting [4] worked out at 190% and the “T/C × 100 (%)” value under setting [6] worked out at 219%.

As for `C[C@H](NC(=O)[C@H](CO)NC(=O)OC(C)(C)C)C(=O)NCCNc1ccc(NCCNC(=O)[C@H](C)NC(=O)[C@H](CO)NC(=O)OC(C)(C)C)c2c1C(=O)c1c(O)ccc(O)c1C2=O` [Example 75], the “Median Survival” value stood at 18.5 days under setting [1], 19.0 days under setting [3] and 21.0 days under setting [5]. The “T/C × 100 (%)” value under setting [2] amounted to 154%, the “T/C × 100 (%)” value under setting [4] worked out at 158% and the “T/C × 100 (%)” value under setting [6] is 175%.

Consider `CC(C)C[C@H](NC(=O)[C@H](C)NC(=O)[C@H](CC(=O)OC(C)(C)C)NC(=O)OCC1c2ccccc2-c2ccccc21)C(=O)NCCNc1ccc(NCCNC(=O)[C@H](CC(C)C)NC(=O)[C@H](C)NC(=O)[C@H](CC(=O)OC(C)(C)C)NC(=O)OCC2c3ccccc3-c3ccccc32)c2c1C(=O)c1c(O)ccc(O)c1C2=O` [Example 81, N,N'-[(9,10-Dihydro-5,8-dihydroxy-9,10-dioxo-1,4-anthracenediyl)bis(imino-2,1-ethanediyl)]bis[N-[(9H-fluoren-9-ylmethoxy)carbonyl]-L-α-aspartyl-L-alanyl-L-leucinamide]bis(1,1-dimethylethyl)ester], for which the “Median Survival” value reads like this: under setting [1], 16.0 days; under setting [3], 18.5 days; under setting [5], 19.0 days. In addition, the “T/C × 100 (%)” value under setting [2] is given as 145%, the “T/C × 100 (%)” value under setting [4] was 168% and the “T/C × 100 (%)” value under setting [6] was 173%.
